Values belong to the compound of their own block, whether it stands above or below them.
Key:
[1] = Microsomal stability, human; assay type: in vitro ADME; conditions: human liver microsomes; read-out: HLM t1/2
Procedure: All single point assay determinations carried out in duplicate.
ADMET and PK experimental methods
Microsomal stability: analysis was performed by Cyprotex Discovery. […]

[2] = tested on: CDK6/D1; design: method as in Reddy et al. 28; conditions: ref Reddy et al. 28; cited from earlier work
[3] = tested on: CDK4/D1; design: method as in Reddy et al. 28; conditions: ref Reddy et al. 28; cited from earlier work
[4] = design: method as in PMID 24568969; conditions: mice, I.V. dosing 5 mgkg^–1; cited from earlier work
[5] = target: SIK3 (Homo sapiens, UniProt Q9Y2K2); assay: Kinase panel radiometric filter binding (33P-ATP); assay type: biochemical; design: dose or concentration left out as unconfirmed
Summary of the method: (§1)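 Compounds were screened at 1 µM against a 140-kinase panel in a radiometric filter-binding assay with 33P-ATP, and residual kinase activity was recorded with s.d. Where activity fell below 20%, full concentration-response curves gave pIC50 values.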

[6] = target: ULK1 (Homo sapiens, UniProt O75385); assay: Kinase panel radiometric filter binding (33P-ATP); assay type: biochemical; design: dose or concentration left out as unconfirmed
Summary of the method: as §1

[7] = target: ERK5 (Homo sapiens, UniProt Q13164); assay: Kinase panel radiometric filter binding (33P-ATP); assay type: biochemical; design: dose or concentration left out as unconfirmed
Summary of the method: as §1

[8] = target: HER4 (Homo sapiens, UniProt Q15303); assay: Kinase panel radiometric filter binding (33P-ATP); assay type: biochemical; design: dose or concentration left out as unconfirmed
Summary of the method: as §1

[9] = target: HIPK1 (Homo sapiens, UniProt Q86Z02); assay: Kinase panel radiometric filter binding (33P-ATP); assay type: biochemical; design: dose or concentration left out as unconfirmed
Summary of the method: as §1

[10] = target: PLK1 (Homo sapiens, UniProt P53350); assay: Kinase panel radiometric filter binding (33P-ATP); assay type: biochemical; design: dose or concentration left out as unconfirmed
Summary of the method: as §1

[11] = target: BRSK1 (Homo sapiens, UniProt Q8TDC3); assay: Kinase panel radiometric filter binding (33P-ATP); assay type: biochemical; design: dose or concentration left out as unconfirmed
Summary of the method: as §1

[12] = target: CAMK1 (Homo sapiens, UniProt Q14012); assay: Kinase panel radiometric filter binding (33P-ATP); assay type: biochemical; design: dose or concentration left out as unconfirmed
Summary of the method: as §1

HER4, sequence (Q15303 26-1308): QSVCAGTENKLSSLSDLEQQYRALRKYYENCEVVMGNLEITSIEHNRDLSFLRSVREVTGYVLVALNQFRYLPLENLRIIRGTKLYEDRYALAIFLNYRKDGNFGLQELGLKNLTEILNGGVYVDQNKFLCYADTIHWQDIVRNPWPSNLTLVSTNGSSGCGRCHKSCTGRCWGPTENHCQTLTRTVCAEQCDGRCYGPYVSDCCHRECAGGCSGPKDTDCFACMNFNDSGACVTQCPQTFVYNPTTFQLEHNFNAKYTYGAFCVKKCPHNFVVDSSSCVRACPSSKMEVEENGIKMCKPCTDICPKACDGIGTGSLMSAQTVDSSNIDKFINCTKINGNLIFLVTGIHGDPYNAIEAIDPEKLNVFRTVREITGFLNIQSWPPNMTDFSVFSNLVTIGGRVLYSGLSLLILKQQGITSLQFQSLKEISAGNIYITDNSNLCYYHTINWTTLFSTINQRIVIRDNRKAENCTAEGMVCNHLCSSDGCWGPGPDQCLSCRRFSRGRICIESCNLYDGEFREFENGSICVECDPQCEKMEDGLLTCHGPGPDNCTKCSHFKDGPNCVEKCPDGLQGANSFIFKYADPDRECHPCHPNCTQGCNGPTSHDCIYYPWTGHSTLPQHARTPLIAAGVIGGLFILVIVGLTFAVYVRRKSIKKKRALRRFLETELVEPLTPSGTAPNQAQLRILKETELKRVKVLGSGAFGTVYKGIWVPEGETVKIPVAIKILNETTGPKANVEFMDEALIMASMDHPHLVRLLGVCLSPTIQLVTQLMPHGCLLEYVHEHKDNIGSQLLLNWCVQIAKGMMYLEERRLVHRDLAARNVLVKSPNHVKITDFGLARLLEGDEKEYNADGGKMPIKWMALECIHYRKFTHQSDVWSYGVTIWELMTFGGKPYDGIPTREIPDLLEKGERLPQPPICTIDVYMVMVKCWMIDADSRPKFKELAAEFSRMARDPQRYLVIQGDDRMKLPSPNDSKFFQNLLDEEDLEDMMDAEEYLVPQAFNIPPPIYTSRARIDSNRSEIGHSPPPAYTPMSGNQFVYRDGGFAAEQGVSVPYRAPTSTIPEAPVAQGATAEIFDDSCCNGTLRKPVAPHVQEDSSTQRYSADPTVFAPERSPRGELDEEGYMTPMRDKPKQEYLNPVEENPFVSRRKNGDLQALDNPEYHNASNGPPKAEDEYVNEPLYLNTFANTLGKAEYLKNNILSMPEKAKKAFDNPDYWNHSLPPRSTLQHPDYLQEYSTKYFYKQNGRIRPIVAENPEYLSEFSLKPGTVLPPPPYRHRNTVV
PLK1, sequence (P53350 whole entry): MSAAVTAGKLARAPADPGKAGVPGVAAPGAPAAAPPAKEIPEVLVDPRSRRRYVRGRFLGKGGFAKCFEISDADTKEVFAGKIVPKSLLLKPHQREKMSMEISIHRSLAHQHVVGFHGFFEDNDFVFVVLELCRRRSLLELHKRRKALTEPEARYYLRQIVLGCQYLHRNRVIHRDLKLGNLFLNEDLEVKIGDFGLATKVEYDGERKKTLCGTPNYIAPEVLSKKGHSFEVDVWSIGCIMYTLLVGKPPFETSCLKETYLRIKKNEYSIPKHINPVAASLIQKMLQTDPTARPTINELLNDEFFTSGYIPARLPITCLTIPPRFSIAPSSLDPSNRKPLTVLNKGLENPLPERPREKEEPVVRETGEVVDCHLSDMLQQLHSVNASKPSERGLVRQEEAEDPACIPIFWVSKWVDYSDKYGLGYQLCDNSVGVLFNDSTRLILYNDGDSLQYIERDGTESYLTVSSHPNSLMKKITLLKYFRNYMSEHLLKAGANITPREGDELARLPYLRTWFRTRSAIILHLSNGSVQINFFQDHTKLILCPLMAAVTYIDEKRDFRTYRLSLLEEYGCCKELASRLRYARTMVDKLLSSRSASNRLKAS
SIK3, sequence (Q9Y2K2 whole entry): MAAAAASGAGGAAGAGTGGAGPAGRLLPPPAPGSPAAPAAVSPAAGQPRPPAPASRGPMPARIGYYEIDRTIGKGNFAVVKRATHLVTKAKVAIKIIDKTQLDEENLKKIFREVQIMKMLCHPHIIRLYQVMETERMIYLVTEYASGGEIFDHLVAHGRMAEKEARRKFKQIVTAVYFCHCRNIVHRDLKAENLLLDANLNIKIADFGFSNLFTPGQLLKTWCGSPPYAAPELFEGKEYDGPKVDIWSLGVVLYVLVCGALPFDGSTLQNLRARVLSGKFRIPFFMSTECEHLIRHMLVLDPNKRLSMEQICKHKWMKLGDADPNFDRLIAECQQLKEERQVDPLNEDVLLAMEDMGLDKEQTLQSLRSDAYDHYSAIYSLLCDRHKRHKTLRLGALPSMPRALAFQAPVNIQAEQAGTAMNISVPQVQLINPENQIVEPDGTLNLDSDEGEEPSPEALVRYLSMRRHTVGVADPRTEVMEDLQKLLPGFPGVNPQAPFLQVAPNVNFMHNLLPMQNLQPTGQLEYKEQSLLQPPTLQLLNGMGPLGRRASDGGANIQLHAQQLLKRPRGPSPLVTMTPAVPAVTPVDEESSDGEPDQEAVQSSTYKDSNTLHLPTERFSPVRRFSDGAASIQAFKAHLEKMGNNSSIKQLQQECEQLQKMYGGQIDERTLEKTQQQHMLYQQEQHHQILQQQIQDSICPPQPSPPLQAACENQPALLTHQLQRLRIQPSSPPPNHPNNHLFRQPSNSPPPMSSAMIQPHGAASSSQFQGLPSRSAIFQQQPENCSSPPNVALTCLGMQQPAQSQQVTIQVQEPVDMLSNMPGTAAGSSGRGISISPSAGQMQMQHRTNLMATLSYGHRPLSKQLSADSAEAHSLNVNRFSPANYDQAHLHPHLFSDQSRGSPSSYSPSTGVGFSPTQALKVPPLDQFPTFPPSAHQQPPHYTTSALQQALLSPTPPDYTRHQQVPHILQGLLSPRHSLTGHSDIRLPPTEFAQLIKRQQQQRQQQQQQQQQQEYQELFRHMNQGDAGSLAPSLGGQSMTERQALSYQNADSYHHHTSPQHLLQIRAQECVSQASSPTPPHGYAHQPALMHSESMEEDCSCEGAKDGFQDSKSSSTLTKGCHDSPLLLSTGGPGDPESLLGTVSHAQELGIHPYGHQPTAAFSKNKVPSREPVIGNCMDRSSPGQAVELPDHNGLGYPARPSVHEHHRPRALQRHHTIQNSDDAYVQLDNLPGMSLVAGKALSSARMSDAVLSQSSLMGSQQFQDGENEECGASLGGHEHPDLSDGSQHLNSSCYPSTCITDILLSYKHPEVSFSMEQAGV
ULK1, sequence (O75385 whole entry): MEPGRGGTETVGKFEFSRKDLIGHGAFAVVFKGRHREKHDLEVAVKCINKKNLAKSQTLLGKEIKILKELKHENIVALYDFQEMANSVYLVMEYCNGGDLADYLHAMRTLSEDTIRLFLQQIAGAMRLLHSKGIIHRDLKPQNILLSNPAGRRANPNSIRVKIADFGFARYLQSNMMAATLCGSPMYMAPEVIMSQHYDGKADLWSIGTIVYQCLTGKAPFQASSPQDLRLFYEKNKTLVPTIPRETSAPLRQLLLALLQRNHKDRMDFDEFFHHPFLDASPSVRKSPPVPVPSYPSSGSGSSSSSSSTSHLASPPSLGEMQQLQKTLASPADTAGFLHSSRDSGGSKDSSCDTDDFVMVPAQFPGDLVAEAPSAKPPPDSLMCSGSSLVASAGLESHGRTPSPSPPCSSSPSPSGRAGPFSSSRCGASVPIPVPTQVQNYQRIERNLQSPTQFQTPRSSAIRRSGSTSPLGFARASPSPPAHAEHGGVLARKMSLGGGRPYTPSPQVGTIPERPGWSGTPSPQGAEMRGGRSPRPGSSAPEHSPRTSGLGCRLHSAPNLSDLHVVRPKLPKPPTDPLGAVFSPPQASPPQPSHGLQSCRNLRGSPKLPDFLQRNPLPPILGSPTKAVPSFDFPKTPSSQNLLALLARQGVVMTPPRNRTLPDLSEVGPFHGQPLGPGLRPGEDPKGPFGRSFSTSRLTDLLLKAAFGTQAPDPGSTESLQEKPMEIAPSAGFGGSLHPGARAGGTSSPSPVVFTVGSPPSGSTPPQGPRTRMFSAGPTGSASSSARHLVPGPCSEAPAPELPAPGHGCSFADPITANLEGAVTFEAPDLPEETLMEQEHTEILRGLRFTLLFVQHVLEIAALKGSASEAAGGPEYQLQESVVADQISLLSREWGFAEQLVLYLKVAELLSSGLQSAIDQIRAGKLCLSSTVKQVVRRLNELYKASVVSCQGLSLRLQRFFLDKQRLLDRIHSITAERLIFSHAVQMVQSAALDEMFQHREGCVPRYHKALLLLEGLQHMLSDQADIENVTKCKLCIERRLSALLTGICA
BRSK1, sequence (Q8TDC3 whole entry): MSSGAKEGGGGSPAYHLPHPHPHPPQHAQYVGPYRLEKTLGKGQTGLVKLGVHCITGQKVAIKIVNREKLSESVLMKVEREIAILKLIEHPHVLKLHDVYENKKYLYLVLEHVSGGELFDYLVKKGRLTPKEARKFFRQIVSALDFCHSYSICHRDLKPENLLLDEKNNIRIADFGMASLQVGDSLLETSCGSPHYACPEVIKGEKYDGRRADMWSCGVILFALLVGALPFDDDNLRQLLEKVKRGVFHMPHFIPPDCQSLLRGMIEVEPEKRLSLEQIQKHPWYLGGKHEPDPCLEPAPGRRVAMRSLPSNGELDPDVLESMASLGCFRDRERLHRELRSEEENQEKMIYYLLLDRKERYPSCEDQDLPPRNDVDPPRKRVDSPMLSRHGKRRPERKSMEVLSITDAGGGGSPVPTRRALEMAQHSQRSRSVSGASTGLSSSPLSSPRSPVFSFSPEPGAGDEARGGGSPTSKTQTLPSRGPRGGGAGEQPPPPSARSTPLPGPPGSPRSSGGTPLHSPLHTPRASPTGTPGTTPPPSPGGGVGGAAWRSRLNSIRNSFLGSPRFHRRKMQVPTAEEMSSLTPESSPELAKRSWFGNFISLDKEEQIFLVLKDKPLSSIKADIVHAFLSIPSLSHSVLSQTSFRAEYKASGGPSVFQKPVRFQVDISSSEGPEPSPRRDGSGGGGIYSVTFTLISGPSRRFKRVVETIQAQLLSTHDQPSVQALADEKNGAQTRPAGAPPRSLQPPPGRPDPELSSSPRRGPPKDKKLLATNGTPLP

half-life at 1 µM [1]: 6.9 min
Compound: CN1CCN(c2ccc(Nc3ncc4cc(C#N)c(=O)n(C5CCCC5)c4n3)cc2)CC1 [Compound 3, Narazaciclib, reference compound]
CDK6/D1 pIC50 [2]: 8.0 | CDK4/D1 pIC50 [3]: 8.4 | plasma half-life t1/2 [4]: 90 min

Compound: CN1C2CC1CN(c1ccc(Nc3ncc4ccn(CC5CCOCC5)c4n3)cc1)C2 [Compound 24]
% activity remaining [5]: 74% | % activity remaining [6]: 77% | % activity remaining [7]: 102% | % activity remaining [8]: 74% | % activity remaining [9]: 82% | % activity remaining [10]: 64% | % activity remaining [11]: 75% | % activity remaining [12]: 129%

Compound: Cc1cc(=O)n(C2CCCC2)c2nc(Nc3ccc(N4CC5CC(C4)N5C)cc3)ncc12 [Compound 9]
% activity remaining [5]: 85% | % activity remaining [6]: 23% | % activity remaining [7]: 80% | % activity remaining [8]: 118% | % activity remaining [9]: 88% | % activity remaining [10]: 32% | % activity remaining [11]: 81% | % activity remaining [12]: 102%

From publication PMC11831560, “Development of the Pyrido[2,3-d]pyrimidin-7(8H)-one Scaffold toward Potent and Selective NUAK1 Inhibitors” (ACS Medicinal Chemistry Letters, 2025)
